Measurements from ChEMBL document CHEMBL5506006, “Discovery of 2,9-diaryl-6-carbamoylpurines as a novel class of antitubercular agents” (Eur J Med Chem, 2024).
Converted amounts (≈) assume the structure as drawn. The source made the active and inactive calls. No cut-off for these calls is given here.

Experiments:
[1] = tested on: Mycobacterium tuberculosis; assay: Antituberculosis activity against Mycobacterium tuberculosis H37Rv; format: functional, organism-based
[2] = Biodistribution in C57BL/6 mouse liver at 25 mg/kg, po administered as single dose and measured after 6 hrs by HPLC based UV-Visble detector method; format: ADME, organism-based; conditions: read-out: Drug uptake
[3] = Selectivity index, ratio of EC50 for african green monkey Vero cells to IC90 for Mycobacterium tuberculosis H37Rv; format: toxicity; conditions: read-out: Selectivity Index
[4] = tested on: Mycobacterium tuberculosis; assay: Antimycobacterial activity against Mycobacterium tuberculosis H37Rv infected in C57BL/6 mouse assessed as reduction in liver bacterial burden at 25 mg/kg, po pre-infected for 24 hrs followed by compound addition for 6 days per week and measured on day 18; format: functional, organism-based; conditions: time 18.0 day
[5] = Biodistribution in C57BL/6 mouse lung at 25 mg/kg, po administered as single dose and measured after 24 hrs by HPLC based UV-Visble detector method; format: ADME, organism-based; conditions: read-out: Drug uptake
[6] = Biodistribution in C57BL/6 mouse blood at 25 mg/kg, po administered as single dose and measured after 6 hrs by HPLC based UV-Visble detector method; format: ADME, organism-based; conditions: read-out: Drug uptake
[7] = tested on: Mycobacterium tuberculosis; assay: Antimycobacterial activity against Mycobacterium tuberculosis H37Rv infected in C57BL/6 mouse assessed as reduction in lung bacterial burden at 25 mg/kg, po pre-infected for 24 hrs followed by compound addition for 6 days per week and measured on day 18 and 36; format: functional, organism-based; conditions: time 18-36 day
[8] = tested on: BMDM; assay: Cytotoxicity against mouse BMDMs at 2 to 10 times MIC incubated for 24 hrs by MTS assay; format: toxicity, cell-based
[9] = tested on: Mycobacterium tuberculosis; assay: Antituberculosis activity against Mycobacterium tuberculosis H37Rv infected in macrophage assessed as reduction in bacterial load at 10 times IC90 incubated for 3 days; format: functional, organism-based; conditions: time 3.0 day
[10] = Biodistribution in C57BL/6 mouse lung at 25 mg/kg, po administered as single dose and measured after 48 hrs by HPLC based UV-Visble detector method; format: ADME, organism-based; conditions: read-out: Drug uptake
[11] = Biodistribution in C57BL/6 mouse liver at 25 mg/kg, po administered as single dose and measured after 2 hrs by HPLC based UV-Visble detector method; format: ADME, organism-based; conditions: read-out: Drug uptake
[12] = Biodistribution in C57BL/6 mouse liver at 25 mg/kg, po administered as single dose and measured after 24 hrs by HPLC based UV-Visble detector method; format: ADME, organism-based; conditions: in vivo
[13] = Cytotoxicity against African green monkey Vero cells; format: toxicity, cell-based; conditions: African green monkey (Chlorocebus sabaeus)
[14] = tested on: Mycobacterium tuberculosis; assay: Antituberculosis activity against Mycobacterium tuberculosis H37Rv infected in macrophage assessed as reduction in bacterial load at 2 times IC90 incubated for 3 days; format: functional, organism-based; conditions: time 3.0 day
[15] = Biodistribution in C57BL/6 mouse blood at 25 mg/kg, po administered as single dose and measured after 2 hrs by HPLC based UV-Visble detector method; format: ADME, organism-based; conditions: read-out: Drug uptake

Structure (SMILES)	IC50 [1]	IC90 [1]	also measured
CC(C)(C)Oc1ccc(-c2nc(C(N)=O)c3ncn(-c4ccccc4)c3n2)cc1	> 100 µg/mL	> 100 µg/mL	–
COc1ccc(-c2nc(C(N)=O)c3ncn(-c4ccccc4)c3n2)cc1	< 0.1 µg/mL	< 0.19 µg/mL	concentration at 6 h [2]: 1460 ng/g; selectivity ratio [3]: > 154; Activity [4]: Active; concentration at 24 h [5]: 4030 ng/g; concentration at 6 h [6]: 2160 ng/g; Activity [7]: Active; Activity [8]: Non-Toxic; Activity [9]: Active; concentration at 48 h [10]: 1210 ng/g; concentration at 2 h [11]: 4800 ng/g; Drug uptake [12]: Not Active; EC50 [13]: > 30 µg/mL; Activity [14]: Active; concentration at 2 h [15]: 630 ng/g
COc1ccc(-n2cnc3c(C(N)=O)nc(-c4ccccc4O)nc32)cc1	> 100 µg/mL	> 100 µg/mL	–
NC(=O)c1nc(-c2ccc(Oc3ccc(Cl)cc3)cc2)nc2c1ncn2-c1ccccc1	2.69 µg/mL (≈ 6.09 µM)	3.09 µg/mL (≈ 6.99 µM)	selectivity ratio [3]: 4.11; EC50 [13]: 12.7 µg/mL (≈ 28.7 µM)
NC(=O)c1nc(-c2ccc(OC(F)(F)F)cc2)nc2c1ncn2-c1ccccc1	> 100 µg/mL	> 100 µg/mL	–
NC(=O)c1nc(-c2ccccc2O)nc2c1ncn2Cc1ccccc1	> 100 µg/mL	> 100 µg/mL	–
CCc1ccc(-c2nc(C(N)=O)c3ncn(-c4ccccc4)c3n2)cc1	> 100 µg/mL	> 100 µg/mL	–
COc1ccc(-c2nc(C(N)=O)c3ncn(-c4ccccc4)c3n2)c2ccccc12	> 100 µg/mL	> 100 µg/mL	–
COc1ccc(-n2cnc3c(C(N)=O)nc(-c4cccc(O)c4)nc32)cc1	> 100 µg/mL	> 100 µg/mL	–
NC(=O)c1nc(-c2ccc(O)cc2)nc2c1ncn2-c1ccccc1	0.7 µg/mL (≈ 2.11 µM)	1.2 µg/mL (≈ 3.62 µM)	selectivity ratio [3]: > 25.5; EC50 [13]: > 30 µg/mL
N#Cc1ccc(-n2cnc3c(C(N)=O)nc(-c4cccc(O)c4)nc32)cc1	38.5 µg/mL (≈ 108 µM)	> 100 µg/mL	–
COc1ccc(-n2cnc3c(C(N)=O)nc(-c4ccc(O)cc4)nc32)cc1	> 100 µg/mL	> 100 µg/mL	–
COc1ccc2cc(-c3nc(C(N)=O)c4ncn(-c5ccccc5)c4n3)ccc2c1	> 100 µg/mL	> 100 µg/mL	–
NC(=O)c1nc(-c2ccccc2O)nc2c1ncn2-c1ccccc1	> 100 µg/mL	> 100 µg/mL	–
Cn1cnc2c(C(N)=O)nc(-c3cccc(O)c3)nc21	> 100 µg/mL	> 100 µg/mL	–
Cc1ccc(-n2cnc3c(C(N)=O)nc(-c4ccccc4O)nc32)cc1	> 100 µg/mL	> 100 µg/mL	–
NC(=O)c1nc(-c2ccc(C(F)(F)F)cc2)nc2c1ncn2-c1ccccc1	> 100 µg/mL	> 100 µg/mL	–
CCOc1ccc(-c2nc(C(N)=O)c3ncn(-c4ccccc4)c3n2)cc1	1.44 µg/mL (≈ 4.01 µM)	1.65 µg/mL (≈ 4.59 µM)	selectivity ratio [3]: 7.85; EC50 [13]: 12.9 µg/mL (≈ 35.9 µM)
N#Cc1ccc(-n2cnc3c(C(N)=O)nc(-c4ccc(O)cc4)nc32)cc1	> 100 µg/mL	> 100 µg/mL	–
CN(C)c1ccc(-c2nc(C(N)=O)c3ncn(-c4ccccc4)c3n2)cc1	1.38 µg/mL (≈ 3.85 µM)	1.67 µg/mL (≈ 4.66 µM)	selectivity ratio [3]: > 23.9; EC50 [13]: > 40 µg/mL
NC(=O)c1nc(-c2ccc(N3CCOCC3)cc2)nc2c1ncn2-c1ccccc1	> 100 µg/mL	> 100 µg/mL	–
Cc1ccc(-n2cnc3c(C(N)=O)nc(-c4ccc(O)cc4)nc32)cc1	19.2 µg/mL (≈ 55.6 µM)	> 100 µg/mL	–
Cn1cnc2c(C(N)=O)nc(-c3ccccc3O)nc21	> 100 µg/mL	> 100 µg/mL	–
Cn1cnc2c(C(N)=O)nc(-c3ccc(O)cc3)nc21	25.8 µg/mL (≈ 95.8 µM)	47.8 µg/mL (≈ 178 µM)	–
NC(=O)c1nc(-c2ccc(O)cc2)nc2c1ncn2Cc1ccccc1	> 100 µg/mL	> 100 µg/mL	–
N#Cc1ccc(-n2cnc3c(C(N)=O)nc(-c4ccccc4O)nc32)cc1	> 100 µg/mL	> 100 µg/mL	–
NC(=O)c1nc(-c2cccc(O)c2)nc2c1ncn2-c1ccccc1	> 100 µg/mL	> 100 µg/mL	–
Cc1ccc(-n2cnc3c(C(N)=O)nc(-c4cccc(O)c4)nc32)cc1	> 100 µg/mL	> 100 µg/mL	–
